A short description of data set [1]: Cytotoxicity / cell viability (Presto blue). It counts as cell-based. The conditions noted are these: human, RD cells. Here is the method:
The in vitro cellular viability of the as-prepared Cur-CQDs was evaluated using the Presto blue. First, approximately 7.5×10^3 RD cells/well were seeded in 96-cell plates and were fed with DMEM containing 10% fetal bovine serum (FBS). After 24 hours of incubation in a humidified incubator with 5% CO2 at 37° C., the medium was removed from each well, and RD cells were washed with phosphate buffered saline (PBS, pH 7.4). Then, sample solutions (Cur-CQDs with different concentrations) or the control solutions were added in and incubated with cells for 24 hours to 72 hours. Each concentration was tested with 4 sets of parallel samples. After that, the culture medium was replaced with Presto blue and incubated for another 1 hour at 37° C. Finally, fluorescence was measured at an excitation wavelength at 540 nm and an emission wavelength at 590 nm with a BioTek Microplate Reader. The viability of cells was expressed as the percentage of control untreated cells (100%).

For data set [2], the system named is EV71. Briefly: Cytopathic effect (CPE) inhibition assay, RD cells infected with EV71 (pre-, post-, co-treatment). It counts as cell-based, human rhabdomyosarcoma (RD) cells. Here is the method: RD cells were seeded at 7.5×10^3 cells/well in 96-well plates and incubated for 24 hours at 37° C. To analyze how Cur-CQDs affect the infectivity of EV71, Cur-CQDs pre-treatment, post-treatment, co-treatment assay was taken as follows. For pre-treatment, Cur-CQDs were pre-incubated with RD cells at 37° C. for 24 hours and then cultured with EV71 for 48 hours at 37° C. For post-treatment, EV71 were pre-incubated with RD cells at 37° C. for 24 hours, after that, cell monolayers were washed with PBS to remove non-adherent virus and further incubated with DMEM (containing 2% FBS and Cur-CQDs) at 37° C. for 48 hours. For co-treatment, EV71 were pre-incubated with series of CQDcurs at 37° C. for 1 hour, then cultured with RD cells for 72 hours at 37° C. Negative (cells only) and positive (cells infected with EV71 without Cur-CQDs) controls were set as well.

Usually CC50 stands for the concentration that lowers cell viability or growth by half.

Where only a bound is given, the exact number is not on record here.

`COc1cc(/C=C/C(=O)CC(=O)/C=C/c2ccc(O)c(OC)c2)ccc1O` [Curcumin] showed a CC50 in data set [1] of over 13 µg/mL. Also, the EC50 in data set [2] (Enterovirus A, EV71 in RD cell, read-out: Antiviral activity EC50 (concentration at which inhibition rate of CPE reaches halfway between baseline and maximum)) was over 200 µg/mL. In data set [2] (human), the selectivity ratio stood at 0.1.

(Values after patent US11464823B2, “Curcumin carbon quantum dots and use thereof” (priority 2018, dated 2022).)
